These results are taken from patent US11584765B2 (priority 2017, dated 2023).

The assay relates to C57BL/6 mice. Kind of assay: animal or person. The class given is in vivo. Conditions: Mus musculus, sc, 0.5 h, s.c. administration, 30 min, 55° C. water, read-out: ED50 (mg/kg) at 30 min on C57BL/6 mice in Warm-water Tail-flick Test. For orientation: Hot-plate and tail-flick tests time the reaction to a heat stimulus.

Each structure is given as a SMILES string. Structures can show the parent of a compound that is named as a salt.

For `CCOC[C@@]1(CCc2nccn2C)CCN(C(C)c2ccc(C)nc2)C1.Cl` (stereo partly drawn) [Compound 446, 5-(1-((S)-3-(ethoxymethyl)-3-(2-(1-methyl-1H-imidazol-2-yl)ethyl)pyrrolidin-1-yl)ethyl)-2-methylpyridine HCl], the ED50 is less than 10 mg/kg. The result for `CC(c1cccnc1)N1CCC(CCc2cccs2)(c2ccccn2)CC1.Cl` (stereo not shown) [Compound 447, 2-(1-(1-(pyridin-3-yl)ethyl)-4-(2-(thiophen-2-yl)ethyl)piperidin-4-yl)pyridine HCl] reads less than 10 mg/kg; that for `Cl.Cn1cc(CN2CCC(CCc3cccs3)(c3ccccn3)CC2)cn1` [Compound 448], less than 10 mg/kg; that for `CCOC[C@@]1(CCc2nc(C)cs2)CCN(C(C)(C)c2ccc(C)nc2)C1.Cl` [Compound 449, (S)-2-(2-(3-(ethoxymethyl)-1-(2-(6-methylpyridin-3-yl)propan-2-yl)pyrrolidin-3-yl)ethyl)-4-methylthiazole HCl], less than 10 mg/kg. The result for `CCOC[C@@]1(CCc2nc(C)c(C)s2)CCN(C(C)(C)c2ccc(C)nc2)C1.Cl` [Compound 450, (S)-2-(2-(3-(ethoxymethyl)-1-(2-(6-methylpyridin-3-yl)propan-2-yl)pyrrolidin-3-yl)ethyl)-4,5-dimethylthiazole HCl] reads less than 10 mg/kg; that for `CCOCC1(CCc2cccs2)CCCN1Cc1cccnc1.Cl` (stereo not shown) [Compound 451, 3-((2-(ethoxymethyl)-2-(2-(thiophen-2-yl)ethyl)pyrrolidin-1-yl)methyl)pyridine HCl], less than 10 mg/kg; that for `CCOC[C@@]1(CCc2cccs2)CCN(Cc2ccc(OC)nc2)C1.Cl` [Compound 452, (S)-5-((3-(ethoxymethyl)-3-(2-(thiophen-2-yl)ethyl)pyrrolidin-1-yl)methyl)-2-methoxypyridine HCl], less than 10 mg/kg.

For `CCOC[C@@]1(CCc2cccs2)CCN(C(C)(C)c2ccc(OC)nc2)C1.Cl` [Compound 453, (S)-5-(2-(3-(ethoxymethyl)-3-(2-(thiophen-2-yl)ethyl)pyrrolidin-1-yl)propan-2-yl)-2-methoxypyridine HCl], the ED50 is less than 10 mg/kg. The result for `CCOC[C@@]1(CCc2cccs2)CCN(Cc2ccc(=O)[nH]c2)C1.Cl` [Compound 454, (S)-5-((3-(ethoxymethyl)-3-(2-(thiophen-2-yl)ethyl)pyrrolidin-1-yl)methyl)pyridin-2(1H)-one HCl] reads more than 10 mg/kg.

For the compound `CCOCC1(CCC2CCCS2)CCCN1Cc1cccnc1.Cl` (stereo not shown) [Compound 455, 3-((2-(ethoxymethyl)-2-(2-(tetrahydrothiophen-2-yl)ethyl)pyrrolidin-1-yl)methyl)pyridine HCl], the ED50 is more than 10 mg/kg. In the case of `CCOC[C@@]1(CCc2nc3ncncc3[nH]2)CCN(C(C)(C)c2ccc(C)nc2)C1` [Compound 456, (S)-8-(2-(3-(ethoxymethyl)-1-(2-(6-methylpyridin-3-yl)propan-2-yl)pyrrolidin-3-yl)ethyl)-7H-purine citrate] it was less than 10 mg/kg; in that of `CCOC[C@@]1(CCC2CC2)CCN(C(C)(C)c2ccc(C)nc2)C1` [Compound 457, (S)-5-(2-(3-(2-cyclopropylethyl)-3-(ethoxy-methyl)pyrrolidin-1-yl)propan-2-yl)-2-methylpyridine citrate], less than 10 mg/kg.

As to `CCOC[C@@]1(COCc2ccccc2)CCN(C(C)(C)c2ccc(C)nc2)C1.Cl` [Compound 458, (R)-5-(2-(3-((benzyloxy)methyl)-3-(ethoxy-methyl)pyrrolidin-1-yl)propan-2-yl)-2-methylpyridine HCl], the ED50 is less than 10 mg/kg. In the case of `CCCCC[C@]1(COCC)CCN(C(C)(C)c2ccc(C)nc2)C1.Cl` [Compound 459, (S)-5-(2-(3-(ethoxymethyl)-3-pentylpyrrolidin-1-yl)propan-2-yl)-2-methylpyridine HCl], the ED50 is less than 10 mg/kg. As for `CCOCC1CCN(C(C)(C)c2ccc(C)nc2)C1.Cl` (stereo not shown) [Compound 460, 5-(2-(3-(ethoxy-methyl)pyrrolidin-1-yl)propan-2-yl)-2-methylpyridine HCl], the ED50 was less than 10 mg/kg. The result for `CCOC[C@@]1(CCc2nc3ncncc3n2Cc2ccc(OC)cc2)CCN(C(C)(C)c2ccc(C)nc2)C1` [Compound 461, (S)-8-(2-(3-(ethoxymethyl)-1-(2-(6-methylpyridin-3-yl)propan-2-yl)pyrrolidin-3-yl)ethyl)-7-(4-methoxybenzyl)-7H-purine citrate] reads less than 10 mg/kg; that for `CCOC[C@@]1(CCc2sccc2C)CCN(Cc2cccnc2)C1` [Compound 462, (S)-3-((3-(ethoxymethyl)-3-(2-(3-methylthiophen-2-yl)ethyl)pyrrolidin-1-yl)methyl)pyridine], less than 10 mg/kg. Turning to `CCOC[C@@]1(CCc2ccc(C)s2)CCN(Cc2cccnc2)C1` [Compound 463, (S)-3-((3-(ethoxymethyl)-3-(2-(5-methylthiophen-2-yl)ethyl)pyrrolidin-1-yl)methyl)pyridine], the ED50 was less than 10 mg/kg. For `CCOC[C@@]1(CCc2ccsc2C)CCN(Cc2cccnc2)C1` [Compound 464, (S)-3-((3-(ethoxymethyl)-3-(2-(2-methylthiophen-3-yl)ethyl)pyrrolidin-1-yl)methyl)pyridine], the ED50 is less than 10 mg/kg.

Turning to `CCOC[C@@]1(CCC2CC2)CCN(C2(c3ccc(C)nc3)CC2)C1` [Compound 466, (S)-5-(1-(3-(2-cyclopropylethyl)-3-(ethoxy-methyl)pyrrolidin-1-yl)cyclopropyl)-2-methylpyridine], the ED50 was less than 10 mg/kg.

As for `Cc1ccc(CN2[C@@H](C)CC(CCc3ccc(F)cn3)(c3ccccn3)C[C@@H]2C)cn1` (stereo partly drawn) [Compound 467, 2-(2-((2S,6S)-2,6-dimethyl-1-((6-methylpyridin-3-yl)methyl)-4-(pyridin-2-yl)piperidin-4-yl)ethyl)-5-fluoropyridine], the ED50 was more than 10 mg/kg. For `Cc1ccc(C(C)(C)N2CC[C@](CCc3cccs3)([C@@H]3CCC(C)(C)O3)C2)cn1` [Compound 468, 5-(2-((S)-3-((S)-5,5-dimethyltetrahydro-furan-2-yl)-3-(2-(thiophen-2-yl)ethyl)pyrrolidin-1-yl)propan-2-yl)-2-methylpyridine], the ED50 is less than 10 mg/kg.
